Data from patent US8314092B2, “Substituted [(5H-pyrrolo[2,1-c][1,4]benzodiazepin-11-yl)piperazin-1-yl]-2,2-dimethylpropanoic acid compounds as dual activity H1 inverse agonists/5-HT2A antagonists” (Eli Lilly and Company, priority 2011, dated 2012).
Where a name gives a salt, the structure may show the parent alone.

Columns and labels:
[1] = system: Wistar rats; assay: Sleep and behavioral monitoring in rats (EEG, EMG, motion); type: in vivo; conditions: rat; for Rebound Insomnia, Adj. Mean: NREM + REM sleep in 7th-9th hours post-treatment; for Rebound Insomnia, Adj. Mean / REM inhibition, Adj. Mean / Cumulative NREM sleep, Adj. Mean / Cumulative Total sleep, Adj. Mean / Locomotor Activity Intensity, Adj. Mean: difference from vehicle; for REM inhibition, Adj. Mean: REM sleep in first 12 hours post-treatment; for Cumulative NREM sleep, Adj. Mean / Cumulative Total sleep, Adj. Mean / Locomotor Activity Intensity, Adj. Mean / Average Sleep Bout, Adj. Mean / Longest Sleep Bout, Adj. Mean: first 6 hours post-treatment; for Average Sleep Bout, Adj. Mean / Longest Sleep Bout, Adj. Mean: n-fold increase over vehicle controls
Method: Sleep and behavioral monitoring in rats: Representative compounds of the present invention are tested in rats for their ability to increase the amount of sleep or decrease sleep interruption or both without undesired effects such as inhibition of REM sleep, waking motor impairment, and/or rebound insomnia. Test animals are continuously monitored by electro-encephalograms (EEG), electromyograms (EMG), and motion to measure cumulative nonREM sleep, cumulative total sleep, average sleep bout duration, longest sleep bout duration, rebound insomnia, REM sleep inhibition and locomotor activity intensity during wakefulness. Methods for such studies are known in the art (see for example methods described in Edgar D M, Seidel W F. Modafinil induces wakefulness without intensifying motor activity or subsequent rebound hypersomnolence in the rat. J Pharmacology & Experimental Therapeutics 1997; 283: 757-769; van Gelder R N, Edgar D M, Dement W C. Real-time automated sleep scoring: validation of a microcomputer-based system for mice. Sleep 1991, 14: 48-55; and Gross B A, Walsh C M, Turakhia A A, Booth V, Mashour G A, Poe G R. Open-source logic-based automated sleep scoring software using electrophysiological recordings in rats. J Neurosci Methods. 2009; 184(1):10-8.) Studies are conducted as follows: Animal preparation. Adult, male Wistar rats (approximately 270-300 g at time of surgery) are surgically fitted for chronic recording of EEG, EMG, and motion as follows: Rats are surgically prepared with a cranial implant consisting of four stainless steel screws for EEG recording (two frontal [3.9 mm anterior from bregma, and ±2.0 mm mediolaterally] and two occipital [6.4 mm posterior from bregma, ±5.5 mm mediolaterally]), and with two Teflon-coated stainless steel wires for EMG recording (positioned under the nuchal trapezoid muscles). All leads are soldered to a miniature connector (Microtech, Boothwyn, Pa.) prior to surgery. The implant assembly is affixed to the skull by the combination of the stainless steel EEG recording screws, cyanoacrylate applied between the implant connector and skull, and dental acrylic. Locomotor activity is monitored via a miniature transmitter (Minimitter PDT4000G, Philips Respironics, Bend, Oreg.) surgically placed into the abdomen. At least 3 weeks are allowed for recovery. Recording environment. Each rat is housed individually within a microisolator cage modified with an inserted polycarbonate filter-top riser to allow more vertical headroom. A flexible cable that minimally restricts movement is connected at one end to a commutator affixed to the cage top and at the other end to the animal's cranial implant. Each cage is located within separate, ventilated compartments of a stainless steel sleep-wake recording chamber. Food and water are available ad libitum and the ambient temperature is maintained at about 23±1° C. A 24-hr. light-dark cycle (LD 12:12) using fluorescent light is maintained throughout the study. Relative humidity averages approximately 50%. Animals are undisturbed for at least 30 hrs before and after each treatment. Study design and dosing. The vehicle (placebo, methylcellulose 15 centipoise 0.25% in water) or one of the test compound dose levels is administered orally at 1 mL/kg pseudo-randomly such that no rat receives the same treatment twice, and no rat receives more than two of the 8 treatments in any one study. Each rat is removed from its cage for about a minute to be weighed and treated. At least 6 days “washout” period precede and follow each treatment. Data collection. […]

[2] = target: 5-HT5 (Homo sapiens, UniProt P47898); assay: 5-HT5 binding
Description: (§1) Further, the compounds of the invention may be tested in binding assays and functional activity assays by well known methods for other physiologically important receptors such as, but not limited to, the hERG channel, other serotonin receptors (specifically 5-HT1A, 5-HT1B, 5-HT1D, 5-HT1E, 5-HT1F receptors, lack of agonist activity at 5-HT2B receptors, 5-HT2C, 5-HT4, 5-HTS, 5-HT6, and 5-HT7 receptors), muscarinic receptors, dopaminergic receptors (specifically D1, D2, and D3), GABAA receptors, adrenergic receptors and monoamine transporters. Certain exemplified compounds are tested at these receptors and are shown to lack significant activity.

[3] = target: Norepinephrine Transport (Homo sapiens, UniProt P23975); assay: Norepinephrine transporter assay; type: binding; conditions: dihydrochloride
Description: as §1

[4] = target: Adrenergic alpha2B (Homo sapiens, UniProt P18089); assay: Adrenergic alpha2B binding
Description: as §1

[5] = target: 5-HT2B receptors (Homo sapiens, UniProt P41595); assay: 5-HT2B agonist functional activity assay; type: cell-based
Description: as §1

[6] = target: 5-HT7 (Homo sapiens, UniProt P34969); assay: 5-HT7 binding
Description: as §1

[7] = target: Dopamine D2 (Homo sapiens, UniProt P14416); assay: Dopamine D2 binding
Description: as §1

[8] = target: Adrenergic alpha2C (Homo sapiens, UniProt P18825); assay: Adrenergic alpha2C binding
Description: as §1

[9] = PO, 6 hour period after treatment

Chain of Dopamine D2 (P14416 whole entry): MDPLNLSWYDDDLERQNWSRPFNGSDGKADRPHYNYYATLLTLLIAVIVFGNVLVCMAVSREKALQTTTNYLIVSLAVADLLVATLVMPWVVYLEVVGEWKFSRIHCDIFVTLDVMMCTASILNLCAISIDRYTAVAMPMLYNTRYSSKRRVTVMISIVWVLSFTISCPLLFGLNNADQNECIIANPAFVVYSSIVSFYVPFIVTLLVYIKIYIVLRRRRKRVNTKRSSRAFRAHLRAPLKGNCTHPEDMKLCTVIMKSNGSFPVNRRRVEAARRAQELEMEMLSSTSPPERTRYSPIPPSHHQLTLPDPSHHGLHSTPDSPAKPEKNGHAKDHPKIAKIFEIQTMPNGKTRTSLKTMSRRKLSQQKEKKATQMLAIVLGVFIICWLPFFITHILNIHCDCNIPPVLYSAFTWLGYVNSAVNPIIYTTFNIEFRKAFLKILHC
Chain of Norepinephrine Transport (P23975 whole entry): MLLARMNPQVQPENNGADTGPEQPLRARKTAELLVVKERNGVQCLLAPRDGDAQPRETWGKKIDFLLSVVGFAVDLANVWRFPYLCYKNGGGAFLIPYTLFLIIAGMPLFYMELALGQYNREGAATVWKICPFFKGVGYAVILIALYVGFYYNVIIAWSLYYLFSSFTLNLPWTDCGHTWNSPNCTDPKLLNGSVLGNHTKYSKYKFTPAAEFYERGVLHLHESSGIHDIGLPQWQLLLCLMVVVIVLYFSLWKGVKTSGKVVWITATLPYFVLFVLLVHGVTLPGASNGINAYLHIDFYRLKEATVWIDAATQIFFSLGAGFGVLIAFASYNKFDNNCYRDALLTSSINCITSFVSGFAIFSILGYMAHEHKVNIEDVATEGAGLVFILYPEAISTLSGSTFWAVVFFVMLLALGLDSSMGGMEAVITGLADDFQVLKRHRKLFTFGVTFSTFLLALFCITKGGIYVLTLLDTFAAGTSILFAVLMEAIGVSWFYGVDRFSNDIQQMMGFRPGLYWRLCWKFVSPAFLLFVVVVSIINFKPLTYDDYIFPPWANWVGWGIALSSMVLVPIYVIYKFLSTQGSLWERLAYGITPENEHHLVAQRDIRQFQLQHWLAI
Chain of 5-HT5 (P47898 whole entry, species assumed): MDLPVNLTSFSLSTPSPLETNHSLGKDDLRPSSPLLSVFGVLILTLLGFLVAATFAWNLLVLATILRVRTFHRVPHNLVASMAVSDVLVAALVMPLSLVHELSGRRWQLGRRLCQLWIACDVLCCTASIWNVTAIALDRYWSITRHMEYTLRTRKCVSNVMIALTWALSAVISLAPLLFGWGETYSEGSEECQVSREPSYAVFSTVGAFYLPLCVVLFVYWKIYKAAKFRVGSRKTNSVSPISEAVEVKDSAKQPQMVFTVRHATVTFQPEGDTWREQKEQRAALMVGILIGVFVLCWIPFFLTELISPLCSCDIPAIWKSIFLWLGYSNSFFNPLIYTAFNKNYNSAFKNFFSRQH
Chain of 5-HT2B receptors (P41595 whole entry): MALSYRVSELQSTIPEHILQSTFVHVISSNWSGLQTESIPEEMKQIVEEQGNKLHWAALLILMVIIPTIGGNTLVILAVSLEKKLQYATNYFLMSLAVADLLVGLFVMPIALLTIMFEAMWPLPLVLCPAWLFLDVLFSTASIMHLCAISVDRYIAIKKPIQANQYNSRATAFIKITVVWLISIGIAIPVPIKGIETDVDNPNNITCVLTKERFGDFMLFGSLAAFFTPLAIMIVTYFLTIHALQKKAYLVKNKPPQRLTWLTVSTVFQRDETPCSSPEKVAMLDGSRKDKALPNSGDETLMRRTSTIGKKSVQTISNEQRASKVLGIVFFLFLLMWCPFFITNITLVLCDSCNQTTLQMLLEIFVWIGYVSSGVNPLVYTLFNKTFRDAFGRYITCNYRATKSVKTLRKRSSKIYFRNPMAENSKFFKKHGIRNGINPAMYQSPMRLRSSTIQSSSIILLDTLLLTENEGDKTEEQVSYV
Chain of Adrenergic alpha2B (P18089 whole entry): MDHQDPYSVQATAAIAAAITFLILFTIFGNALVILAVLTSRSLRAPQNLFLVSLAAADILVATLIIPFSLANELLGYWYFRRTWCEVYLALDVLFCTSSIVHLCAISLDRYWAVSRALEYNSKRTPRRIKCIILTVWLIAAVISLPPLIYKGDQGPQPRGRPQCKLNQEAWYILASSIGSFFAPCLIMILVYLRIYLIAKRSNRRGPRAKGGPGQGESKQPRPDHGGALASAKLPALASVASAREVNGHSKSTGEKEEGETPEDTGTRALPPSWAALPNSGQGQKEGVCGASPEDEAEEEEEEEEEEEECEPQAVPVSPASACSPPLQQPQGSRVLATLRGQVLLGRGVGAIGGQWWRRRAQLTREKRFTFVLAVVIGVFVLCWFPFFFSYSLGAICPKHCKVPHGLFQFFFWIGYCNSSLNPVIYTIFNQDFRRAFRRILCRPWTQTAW
Chain of Adrenergic alpha2C (P18825 whole entry): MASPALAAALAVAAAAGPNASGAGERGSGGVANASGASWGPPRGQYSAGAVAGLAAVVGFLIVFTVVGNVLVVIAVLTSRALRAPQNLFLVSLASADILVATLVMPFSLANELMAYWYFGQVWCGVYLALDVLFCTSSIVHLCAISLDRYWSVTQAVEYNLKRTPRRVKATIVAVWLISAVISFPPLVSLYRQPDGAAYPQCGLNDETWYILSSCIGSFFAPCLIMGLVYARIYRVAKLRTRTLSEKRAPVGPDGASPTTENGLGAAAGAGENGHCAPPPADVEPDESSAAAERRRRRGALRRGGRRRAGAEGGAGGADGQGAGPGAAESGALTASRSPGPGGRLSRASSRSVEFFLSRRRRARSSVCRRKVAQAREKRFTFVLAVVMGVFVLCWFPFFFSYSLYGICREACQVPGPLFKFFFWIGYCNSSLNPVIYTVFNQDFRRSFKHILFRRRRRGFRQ
Chain of 5-HT7 (P34969 whole entry, species assumed): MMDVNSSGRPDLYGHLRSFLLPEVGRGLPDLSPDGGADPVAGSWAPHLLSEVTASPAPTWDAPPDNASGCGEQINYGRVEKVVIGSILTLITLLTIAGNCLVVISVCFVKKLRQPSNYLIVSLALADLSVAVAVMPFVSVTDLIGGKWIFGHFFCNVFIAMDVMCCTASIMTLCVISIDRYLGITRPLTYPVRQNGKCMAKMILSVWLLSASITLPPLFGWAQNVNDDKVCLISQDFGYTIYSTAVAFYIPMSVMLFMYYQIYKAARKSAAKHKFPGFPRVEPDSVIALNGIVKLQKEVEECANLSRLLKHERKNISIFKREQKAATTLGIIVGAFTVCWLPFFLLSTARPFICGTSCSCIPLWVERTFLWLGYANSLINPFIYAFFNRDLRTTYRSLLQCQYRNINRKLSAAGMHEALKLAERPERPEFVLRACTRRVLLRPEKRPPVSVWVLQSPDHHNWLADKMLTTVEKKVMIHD

Cc1cc2n(c1)Cc1cc(Cl)ccc1N=C2N1CCN(CC(C)(C)C(=O)O)CC1 [Example 13, 3-[4-(7-Chloro-2-methyl-5H-pyrrolo[2,1-c][1,4]benzodiazepin-11-yl)piperazin-1-yl]-2,2-dimethylpropanoic acid dihydrochloride]
Rebound Insomnia, Adj. Mean ([1]; 0.03 mg/kg PO): -0.7 min | REM inhibition, Adj. Mean ([1]; 0.03 mg/kg PO): 1.8 min | Cumulative NREM sleep, Adj. Mean ([1]; 0.03 mg/kg PO): 5.1 min | Cumulative Total sleep, Adj. Mean ([1]; 0.03 mg/kg PO): 7.3 min | Locomotor Activity Intensity, Adj. Mean ([1]; 0.03 mg/kg PO): −0.97 LMA counts per minute of EEG-defined wakefulness | Average Sleep Bout, Adj. Mean ([1]; 0.03 mg/kg PO): 1.1 n-fold | Longest Sleep Bout, Adj. Mean ([1]; 0.03 mg/kg PO): 1.3 n-fold | Rebound Insomnia, Adj. Mean ([1]; 0.10 mg/kg PO): -5.4 min | REM inhibition, Adj. Mean ([1]; 0.10 mg/kg PO): 1.0 min | Cumulative NREM sleep, Adj. Mean ([1]; 0.10 mg/kg PO): 5.9 min | Cumulative Total sleep, Adj. Mean ([1]; 0.10 mg/kg PO): 5.9 min | Locomotor Activity Intensity, Adj. Mean ([1]; 0.10 mg/kg PO): −0.35 LMA counts per minute of EEG-defined wakefulness | Average Sleep Bout, Adj. Mean ([1]; 0.10 mg/kg PO): 1.1 n-fold | Longest Sleep Bout, Adj. Mean ([1]; 0.10 mg/kg PO): 1.7 n-fold | Rebound Insomnia, Adj. Mean ([1]; 0.25 mg/kg PO): -1.9 min | REM inhibition, Adj. Mean ([1]; 0.25 mg/kg PO): 4.7 min | Cumulative NREM sleep, Adj. Mean ([1]; 0.25 mg/kg PO): 15.2 min | Cumulative Total sleep, Adj. Mean ([1]; 0.25 mg/kg PO): 17.7 min | Locomotor Activity Intensity, Adj. Mean ([1]; 0.25 mg/kg PO): −0.58 LMA counts per minute of EEG-defined wakefulness | Average Sleep Bout, Adj. Mean ([1]; 0.25 mg/kg PO): 1.2 n-fold | Longest Sleep Bout, Adj. Mean ([1]; 0.25 mg/kg PO): 1.7 n-fold | Rebound Insomnia, Adj. Mean ([1]; 0.50 mg/kg PO): -7.2 min | REM inhibition, Adj. Mean ([1]; 0.50 mg/kg PO): 5.8 min | Cumulative NREM sleep, Adj. Mean ([1]; 0.50 mg/kg PO): 22.2 min | Cumulative Total sleep, Adj. Mean ([1]; 0.50 mg/kg PO): 25.1 min | Locomotor Activity Intensity, Adj. Mean ([1]; 0.50 mg/kg PO): −0.14 LMA counts per minute of EEG-defined wakefulness | Average Sleep Bout, Adj. Mean ([1]; 0.50 mg/kg PO): 1.4 n-fold | Longest Sleep Bout, Adj. Mean ([1]; 0.50 mg/kg PO): 1.8 n-fold | Rebound Insomnia, Adj. Mean ([1]; 1 mg/kg PO): -9.7 min | REM inhibition, Adj. Mean ([1]; 1 mg/kg PO): 2.6 min | Cumulative NREM sleep, Adj. Mean ([1]; 1 mg/kg PO): 28.0 min | Cumulative Total sleep, Adj. Mean ([1]; 1 mg/kg PO): 30.6 min | Locomotor Activity Intensity, Adj. Mean ([1]; 1 mg/kg PO): −2.94 LMA counts per minute of EEG-defined wakefulness | Average Sleep Bout, Adj. Mean ([1]; 1 mg/kg PO): 1.6 n-fold | Longest Sleep Bout, Adj. Mean ([1]; 1 mg/kg PO): 2.5 n-fold | REM sleep inhibition (in words) ([1]; 3 mg/kg): without significant | cumulative NREM sleep time (in words) ([1]; 3 mg/kg): significantly increase | cumulative total sleep time (in words) ([1]; 3 mg/kg): significantly increase | inhibition of locomotor intensity (LMI) (in words) ([1]; 3 mg/kg): without significant | rebound insomnia (in words) ([1]; 3 mg/kg): without significant | Rebound Insomnia, Adj. Mean ([1]; 3 mg/kg PO): -7.8 min | REM inhibition, Adj. Mean ([1]; 3 mg/kg PO): 7.0 min | Cumulative NREM sleep, Adj. Mean ([1]; 3 mg/kg PO): 39.5 min | Cumulative Total sleep, Adj. Mean ([1]; 3 mg/kg PO): 42.3 min | Locomotor Activity Intensity, Adj. Mean ([1]; 3 mg/kg PO): −1.49 LMA counts per minute of EEG-defined wakefulness | Average Sleep Bout, Adj. Mean ([1]; 3 mg/kg PO): 1.8 n-fold | Longest Sleep Bout, Adj. Mean ([1]; 3 mg/kg PO): 2.7 n-fold | Rebound Insomnia, Adj. Mean ([1]; 10 mg/kg PO): 3.1 min | REM inhibition, Adj. Mean ([1]; 10 mg/kg PO): 2.9 min | Cumulative NREM sleep, Adj. Mean ([1]; 10 mg/kg PO): 51.8 min | Cumulative Total sleep, Adj. Mean ([1]; 10 mg/kg PO): 52.8 min | Locomotor Activity Intensity, Adj. Mean ([1]; 10 mg/kg PO): −0.11 LMA counts per minute of EEG-defined wakefulness | Average Sleep Bout, Adj. Mean ([1]; 10 mg/kg PO): 2.3 n-fold | Longest Sleep Bout, Adj. Mean ([1]; 10 mg/kg PO): 3.1 n-fold | Estimated efficacy dose (mg/kg), NREM accumulation = 30 min [1, 9]: 1.2 mg/kg | Estimated efficacy dose (mg/kg), average sleep bout (1.5-fold increase) [1, 9]: 0.77 mg/kg | Estimated efficacy dose (mg/kg), longest sleep bout (1.75-fold increase) [1, 9]: 0.21 mg/kg | Estimated efficacy dose (mg/kg), total sleep accumulation = 25 min [1, 9]: 0.58 mg/kg | Ki [2]: > 9.09 µM | Norepinephrine Transport [3]: >526 | Ki [4]: > 4.8 µM | EC50 [5]: > 10 µM | Ki [6]: > 3.97 µM | Ki [7]: 3.42 µM | Ki [8]: > 5.33 µM
